Values joined by “and” are separate entries in the source; they are usually repeats but may differ in a detail not shown here. Equal entries are not always repeated. Where two headings read alike, the source gives them in different places.
Assays:
KDR = KDR (Homo sapiens, UniProt P35968); assay: cell-based; conditions: read-out: % Inhibition of KDR kinase autophosphorylation in KDR15 cells, compound conc. 1000 nM
[1] = target: T1, human KDR (VEGF-receptor-2) (Homo sapiens, UniProt P35968); assay: KDR kinase enzyme assay (DELFIA, KDR-IC-Flag, poly(Glu4-Tyr) peptide); format: biochemical; conditions: for inhibition at 0.1 µM: Concentration 100 nM; for inhibition at 1 µM: Concentration 1000 nM
T1 construct: beginning at Met-806; (5′-ATG GAT CCA GAT GM CTC CCA TTG) and ending at Val-1356; made in house
T1 sequence (P35968 806-1356): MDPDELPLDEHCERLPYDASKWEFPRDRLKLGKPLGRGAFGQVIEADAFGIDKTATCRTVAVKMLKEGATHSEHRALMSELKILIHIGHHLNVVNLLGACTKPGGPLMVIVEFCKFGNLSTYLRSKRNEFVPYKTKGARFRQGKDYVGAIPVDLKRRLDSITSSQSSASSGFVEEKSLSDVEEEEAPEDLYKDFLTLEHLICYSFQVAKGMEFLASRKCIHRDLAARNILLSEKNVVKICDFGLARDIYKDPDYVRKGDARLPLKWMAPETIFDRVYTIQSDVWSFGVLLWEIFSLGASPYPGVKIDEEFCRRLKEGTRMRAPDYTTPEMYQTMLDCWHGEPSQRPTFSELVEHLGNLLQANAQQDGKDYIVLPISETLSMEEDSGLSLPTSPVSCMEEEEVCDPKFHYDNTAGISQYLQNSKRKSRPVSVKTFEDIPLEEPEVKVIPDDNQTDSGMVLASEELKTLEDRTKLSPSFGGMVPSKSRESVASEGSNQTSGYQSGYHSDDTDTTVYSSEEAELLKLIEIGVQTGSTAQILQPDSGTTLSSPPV

[2] = system: Human umbilical vein endothelial cells (HUVEC); assay: HUVEC proliferation assay, VEGF-dependent growth ([3H]-thymidine incorporation); format: cell-based; conditions: for inhibition at 0.1 µM / inhibition at 10 µM / inhibition at 1 µM: Homo sapiens, HUVEC
Protocol: Cells were plated into 96-well dishes (4000 cells per well) and allowed to attach overnight. HUVEC were rinsed one time with 100 μl of EBMc-V (EBM supplemented with all above components except serum or VEGF), then 50 ul of EBMc-V was added to cells. Compounds were prepared at 200× stocks in DMSO, diluted into EBMc-V media as 4× stocks, then 50 ul added to appropriate wells. Finally, 100 μl of 2×VEGF (100 ng/ml prepared in EBMc-V; final 50 ng/ml VEGF) was added to all VEGF-treated wells. EBMc-V (no VEGF) was added to negative control wells. Parallel compound-treated plates were prepared except that 100 μl of EGM2 media containing 2% serum but lacking VEGF (EGMc-V) was added. Cells were incubated for 4-5 days at 37° C.
DNA synthesis was assessed by thymidine incorporation. Cells were incubated for 5 hours in 1 μCi of [^3H]-thymidine (PerkinElmer) by addition of 10 ul of 0.1 μCi/ul thymidine prepared in PBS to each well. After incubation, media was aspirated and the cells trypsinized and collected onto a mat using a vacuum-based Micro Cell Harvester (Skatron). [^3H]-thymidine was counted in a liquid scintillation counter. Compounds evaluated for ability to inhibit VEGF-dependent growth of human umbilical vein endothelial cells (HUVEC).

[3] = ATP conc. 10 μM, read-out: % Inhibition
[4] = ATP conc. 1000 μM, read-out: % Inhibition

Chain of KDR (P35968 20-1356): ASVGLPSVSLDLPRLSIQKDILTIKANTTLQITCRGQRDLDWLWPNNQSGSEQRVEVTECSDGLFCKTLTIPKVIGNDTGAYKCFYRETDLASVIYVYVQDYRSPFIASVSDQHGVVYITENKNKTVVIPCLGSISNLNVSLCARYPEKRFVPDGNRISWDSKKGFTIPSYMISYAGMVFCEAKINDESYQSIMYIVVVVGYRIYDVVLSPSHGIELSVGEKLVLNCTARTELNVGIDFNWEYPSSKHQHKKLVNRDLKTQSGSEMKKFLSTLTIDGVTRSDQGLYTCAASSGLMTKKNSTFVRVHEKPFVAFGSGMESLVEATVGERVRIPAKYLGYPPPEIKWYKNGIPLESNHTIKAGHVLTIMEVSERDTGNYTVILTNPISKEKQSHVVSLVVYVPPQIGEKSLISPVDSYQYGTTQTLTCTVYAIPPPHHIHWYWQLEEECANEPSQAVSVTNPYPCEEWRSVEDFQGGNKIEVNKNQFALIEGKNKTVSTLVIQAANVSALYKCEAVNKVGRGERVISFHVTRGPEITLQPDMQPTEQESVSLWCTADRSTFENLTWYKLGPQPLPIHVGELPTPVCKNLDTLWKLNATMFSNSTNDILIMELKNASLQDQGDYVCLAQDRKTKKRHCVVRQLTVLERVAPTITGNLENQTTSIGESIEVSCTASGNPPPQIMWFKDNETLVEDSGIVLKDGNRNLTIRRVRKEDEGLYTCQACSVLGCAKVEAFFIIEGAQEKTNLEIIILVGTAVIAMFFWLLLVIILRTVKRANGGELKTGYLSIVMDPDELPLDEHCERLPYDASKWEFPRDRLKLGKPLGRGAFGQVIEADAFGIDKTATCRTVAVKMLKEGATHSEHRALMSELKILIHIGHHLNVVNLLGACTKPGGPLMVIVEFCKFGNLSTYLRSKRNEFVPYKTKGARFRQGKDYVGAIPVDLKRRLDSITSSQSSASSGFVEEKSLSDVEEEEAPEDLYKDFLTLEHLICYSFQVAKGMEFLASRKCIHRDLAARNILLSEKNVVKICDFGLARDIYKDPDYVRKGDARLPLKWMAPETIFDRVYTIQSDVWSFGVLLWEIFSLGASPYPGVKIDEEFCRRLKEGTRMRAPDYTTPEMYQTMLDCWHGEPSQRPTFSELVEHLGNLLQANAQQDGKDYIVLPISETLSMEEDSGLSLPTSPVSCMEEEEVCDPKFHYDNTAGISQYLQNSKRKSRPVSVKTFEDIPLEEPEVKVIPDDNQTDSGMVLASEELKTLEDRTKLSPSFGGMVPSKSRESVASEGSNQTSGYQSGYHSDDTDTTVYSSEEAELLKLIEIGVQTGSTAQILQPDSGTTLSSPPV

COc1cc2ncnc(NC3=CC(=O)C4(C)OC4C3=O)c2cc1OC (stereo not shown) [Example 5, 4-[(6,7-dimethoxy-4-quinazolinyl)amino]-1-methyl-7-oxabicyclo[4.1.0]hept-3-ene-2,5-dione]
inhibition at 1 µM (KDR): 56% | inhibition at 0.1 µM [1, 3]: 18% | inhibition at 1 µM [1, 3]: 49% | inhibition at 1 µM [1, 4]: 60%

COCCOc1cc2ncnc(NC3=CC(=O)C(C)=CC3=O)c2cc1OC [Example 15, 2-{[6-methoxy-7-(2-methoxyethoxy)-4-quinazolinyl]amino}-5-methylbenzo-1,4-quinone]
inhibition at 0.1 µM ([2]; conc. 100 nM): 24% | inhibition at 10 µM ([2]; conc. 10000 nM): 96% | % Inhibition of VEGF-dependent growth of HUVEC ([2]; conc. 100 nM): 40% and 42% | % Inhibition of VEGF-dependent growth of HUVEC ([2]; conc. 1000 nM): 86% and 95% and 67% | % Inhibition of VEGF-dependent growth of HUVEC ([2]; conc. 10000 nM): 98% and 97%

COCCOc1cc2ncnc(NC3=C(Sc4ccccc4)C(=O)C=C(OC)C3=O)c2cc1OC [Example 18, 5-methoxy-3-{[6-methoxy-7-(2-methoxyethoxy)quinazolin-4-yl]amino}-2-(phenylthio)benzo-1,4-quinone]
inhibition at 1 µM (KDR): 27% | inhibition at 0.1 µM [1, 3]: 13% | inhibition at 1 µM [1, 3]: 2% | inhibition at 1 µM [1, 4]: -30%

COCCOc1cc2ncnc(NC3=C(SCc4ccccc4)C(=O)C=C(OC)C3=O)c2cc1OC [Example 19, 2-(benzylthio)-5-methoxy-3-{[6-methoxy-7-(2-methoxyethoxy)quinazolin-4-yl]amino}benzo-1,4-quinone]
inhibition at 1 µM (KDR): -10% | inhibition at 0.1 µM [1, 3]: 41% | inhibition at 1 µM [1, 3]: 88% | inhibition at 1 µM [1, 4]: 88%

COCCOc1cc2ncnc(NC3=CC(=O)C(Sc4ccccc4)=CC3=O)c2cc1OC [Example 24, 2-{[6-methoxy-7-(2-methoxyethoxy)quinazolin-4-yl]amino}-5-(phenylthio)benzo-1,4-quinone]
inhibition at 1 µM (KDR): 0% | inhibition at 0.1 µM [1, 3]: 96% | inhibition at 1 µM [1, 3]: 92% | inhibition at 1 µM [1, 4]: 96%

COCCOc1cc2ncnc(NC3=CC(=O)C(Cl)=CC3=O)c2cc1OC [Example 25, 2-chloro-5-{[6-methoxy-7-(2-methoxyethoxy)quinazolin-4-yl]amino}benzo-1,4-quinone]
inhibition at 0.1 µM ([2]; conc. 100 nM): 29% | inhibition at 1 µM ([2]; conc. 1000 nM): 51% | inhibition at 10 µM ([2]; conc. 10000 nM): 81%

COCCOc1cc2ncnc(NC3=CC(=O)C(Oc4cccc(C#N)c4)=CC3=O)c2cc1OC [Example 27, 3-[(4-{[6-methoxy-7-(2-methoxyethoxy)quinazolin-4-yl]amino}-3,6-dioxocyclohexa-1,4-dien-1-yl)oxy]benzonitrile]
inhibition at 1 µM (KDR): 25% | IC50 ([1]; ATP conc. 10 μM): 34.4 nM | inhibition at 0.1 µM [1, 3]: 63% | inhibition at 1 µM [1, 3]: 96% | inhibition at 1 µM [1, 4]: 98%

COCCOc1cc2ncnc(NC3=CC(=O)C(Oc4cccc(OC)c4)=CC3=O)c2cc1OC [Example 28, 2-{[6-methoxy-7-(2-methoxyethoxy)quinazolin-4-yl]amino}-5-(3-methoxyphenoxy)benzo-1,4-quinone]
inhibition at 1 µM (KDR): 35% | IC50 ([1]; ATP conc. 10 μM): 12.1 nM | inhibition at 0.1 µM ([1]; ATP conc. 10 μM): 83% | inhibition at 1 µM ([1]; ATP conc. 10 μM): 96% | inhibition at 1 µM ([1]; ATP conc. 1000 μM): 98%

COCCOc1cc2ncnc(NC3=CC(=O)C(Oc4ccc(Oc5ccccc5)cc4)=CC3=O)c2cc1OC [Example 29, 2-{[6-methoxy-7-(2-methoxyethoxy)quinazolin-4-yl]amino}-5-(4-phenoxyphenoxy)benzo-1,4-quinone]
inhibition at 1 µM (KDR): 30% | IC50 ([1]; ATP conc. 10 μM): 37.7 nM | inhibition at 0.1 µM ([1]; ATP conc. 10 μM): 62% | inhibition at 1 µM ([1]; ATP conc. 10 μM): 92% | inhibition at 1 µM ([1]; ATP conc. 1000 μM): 95%

COCCOc1cc2ncnc(NC3=CC(=O)C(Oc4ccc(F)cc4)=CC3=O)c2cc1OC [Example 30, 2-(4-fluorophenoxy)-5-{[6-methoxy-7-(2-methoxyethoxy)quinazolin-4-yl]amino}benzo-1,4-quinone]
inhibition at 0.1 µM ([1]; ATP conc. 10 μM): 83% | inhibition at 1 µM ([1]; ATP conc. 10 μM): 96% | inhibition at 1 µM ([1]; ATP conc. 1000 μM): 98%

COCCOc1cc2ncnc(NC3=CC(=O)C(Oc4ccc(C#N)cc4)=CC3=O)c2cc1OC [Example 31, 4-[(4-{[6-methoxy-7-(2-methoxyethoxy)quinazolin-4-yl]amino}-3,6-dioxocyclohexa-1,4-dien-1-yl)oxy]benzonitrile]
inhibition at 0.1 µM ([1]; ATP conc. 10 μM): 82% | inhibition at 1 µM ([1]; ATP conc. 10 μM): 96% | inhibition at 1 µM ([1]; ATP conc. 1000 μM): 98%

COCCOc1cc2ncnc(NC3=CC(=O)C(Oc4ccc(OC)cc4)=CC3=O)c2cc1OC [Example 32, 2-{[6-methoxy-7-(2-methoxyethoxy)quinazolin-4-yl]amino}-5-(4-methoxyphenoxy)benzo-1,4-quinone]
inhibition at 0.1 µM ([2]; conc. 100 nM): 10% | inhibition at 1 µM ([2]; conc. 1000 nM): 41% | inhibition at 10 µM ([2]; conc. 10000 nM): 98% | IC50 ([1]; ATP conc. 10 μM): 4.8 nM | inhibition at 0.1 µM ([1]; ATP conc. 10 μM): 88% | inhibition at 1 µM ([1]; ATP conc. 10 μM): 96% | inhibition at 1 µM ([1]; ATP conc. 1000 μM): 98%

COCCOc1cc2ncnc(NC3=CC(=O)C(Oc4cccc(Cl)c4)=CC3=O)c2cc1OC [Example 33, 2-(3-chlorophenoxy)-5-{[6-methoxy-7-(2-methoxyethoxy)quinazolin-4-yl]amino}benzo-1,4-quinone]
inhibition at 1 µM (KDR): 19% | inhibition at 0.1 µM ([1]; ATP conc. 10 μM): 84% | inhibition at 1 µM ([1]; ATP conc. 10 μM): 96% | inhibition at 1 µM ([1]; ATP conc. 1000 μM): 98%

COCCOc1cc2ncnc(NC3=CC(=O)C(Oc4cccc(C(C)=O)c4)=CC3=O)c2cc1OC [Example 34, 2-(3-acetylphenoxy)-5-{[6-methoxy-7-(2-methoxyethoxy)quinazolin-4-yl]amino}benzo-1,4-quinone]
inhibition at 1 µM (KDR): 12% | inhibition at 0.1 µM [1, 3]: 55% | inhibition at 1 µM [1, 3]: 95% | inhibition at 1 µM [1, 4]: 97%

COCCOc1cc2ncnc(NC3=CC(=O)C(Oc4ccc(SC)cc4)=CC3=O)c2cc1OC [Example 35, 2-{[6-methoxy-7-(2-methoxyethoxy)quinazolin-4-yl]amino}-5-[4-(methylthio)phenoxy]benzo-1,4-quinone]
inhibition at 1 µM (KDR): 39% | inhibition at 0.1 µM ([1]; ATP conc. 10 μM): 87% | inhibition at 1 µM ([1]; ATP conc. 10 μM): 96% | inhibition at 1 µM ([1]; ATP conc. 1000 μM): 98%

COCCOc1cc2ncnc(NC3=CC(=O)C(Oc4ccc(C(F)(F)F)cc4)=CC3=O)c2cc1OC [Example 36, 2-{[6-methoxy-7-(2-methoxyethoxy)quinazolin-4-yl]amino}-5-[4-(trifluoromethyl)phenoxy]benzo-1,4-quinone]
inhibition at 0.1 µM [1, 3]: 79% | inhibition at 1 µM [1, 3]: 96% | inhibition at 1 µM [1, 4]: 98%

COCCOc1cc2ncnc(NC3=CC(=O)C(Oc4cccc(C(F)(F)F)c4)=CC3=O)c2cc1OC [Example 43, 2-{[6-methoxy-7-(2-methoxyethoxy)quinazolin-4-yl]amino}-5-[3-(trifluoromethyl)phenoxy]benzo-1,4-quinone]
inhibition at 1 µM ([2]; conc. 1000 nM): 36% | inhibition at 10 µM ([2]; conc. 10000 nM): 88% | IC50 ([1]; ATP conc. 10 μM): 121 nM | inhibition at 0.1 µM [1, 3]: 45% | inhibition at 1 µM [1, 3]: 89%

COCCOc1cc2ncnc(NC3=CC(=O)C(Oc4ccc(C(=O)/C=C/c5ccccc5)cc4)=CC3=O)c2cc1OC [Example 55, 2-{[6-methoxy-7-(2-methoxyethoxy)quinazolin-4-yl]amino}-5-{4-[(2E)-3-phenylprop-2-enoyl]phenoxy}benzo-1,4-quinone]
inhibition at 0.1 µM ([2]; conc. 100 nM): 7% | inhibition at 1 µM ([2]; conc. 1000 nM): 61% | inhibition at 10 µM ([2]; conc. 10000 nM): 99% | IC50 ([1]; ATP conc. 10 μM): 5.4 nM | inhibition at 0.1 µM [1, 3]: 90% | inhibition at 1 µM [1, 3]: 93%

COCCOc1cc2ncnc(NC3=CC(=O)C(Oc4ccc(C(C)(C)c5ccccc5)cc4)=CC3=O)c2cc1OC [Example 56, 2-{[6-methoxy-7-(2-methoxyethoxy)quinazolin-4-yl]amino}-5-[4-(1-methyl-1-phenylethyl)phenoxy]benzo-1,4-quinone]
IC50 ([1]; ATP conc. 10 μM): 62.2 nM | inhibition at 0.1 µM [1, 3]: 69% | inhibition at 1 µM [1, 3]: 81%

COCCOc1cc2ncc(C#N)c(NC3=CC(=O)C(Oc4ccccc4)=CC3=O)c2cc1OC [Example 71, 4-[(3,6-dioxo-4-phenoxycyclohexa-1,4-dien-1-yl)amino]-6-methoxy-7-(2-methoxyethoxy)quinoline-3-carbonitrile]
IC50 ([1]; ATP conc. 10 μM): 273 nM | inhibition at 0.1 µM [1, 3]: 41% | inhibition at 1 µM [1, 3]: 85% | inhibition at 1 µM [1, 4]: 58%

COCCOc1cc2ncnc(NC3=CC(=O)C(N(C)c4ccccc4)=CC3=O)c2cc1OC [Example 76, 2-{[6-methoxy-7-(2-methoxyethoxy)quinazolin-4-yl]amino}-5-[methyl(phenyl)amino]benzo-1,4-quinone]
inhibition at 0.1 µM ([2]; conc. 100 nM): -30% | inhibition at 1 µM ([2]; conc. 1000 nM): 63% | inhibition at 10 µM ([2]; conc. 10000 nM): 96%

COCCOc1cc2ncnc(NC3=CC(=O)C(OC)=CC3=O)c2cc1OC [Example 105, 2-(methoxy)-5-{[6-methoxy-7-(2-methoxyethoxy)quinazolin-4-yl]amino}benzo-1,4-quinone]
inhibition at 0.1 µM ([2]; conc. 100 nM): -1% | inhibition at 1 µM ([2]; conc. 1000 nM): 36% | inhibition at 10 µM ([2]; conc. 10000 nM): 88%
